In PubChem BioAssay (NCI):
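Results reflect a 48-hour exposure of cells in 96-well plates to compound at five concentrations. Here, GI50 denotes the concentration required for 50% inhibition of growth. Definition used: TGI = concentration required for complete inhibition of growth.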

Columns and labels:
Assay in all cases: NCI anticancer screen, dose series, 48 h
[1] = test system: M19-MEL melanoma
[2] = test system: HOP-18 NSCLC
[3] = test system: DLD-1 colon
[4] = test system: DMS 273 small cell lung
[5] = test system: SNB-78 CNS

SMILES | TGI [1] | TGI [2] | TGI [3] | TGI [4] | TGI [5] | GI50 [3] | GI50 [4] | GI50 [5] | GI50 [1] | GI50 [2]
O=C(O/N=C1/CCC/C1=C\c1ccccc1)c1ccc(Cl)cc1 | > 100 µM | > 100 µM | > 31.6 µM | > 100 µM | > 100 µM | – | – | – | – | –
NC(CCc1nc(-c2ccccc2)cs1)C(=O)O (configuration not stated) | > 100 µM | > 100 µM | > 100 µM | > 100 µM | > 100 µM | – | – | – | – | –
CN1NC(c2ccccc2)=C(C#N)C(=O)CC1c1ccccc1Cl (configuration not stated) | – | > 100 µM | > 100 µM | > 100 µM | > 100 µM | – | – | – | – | –
O=C(CN1C(=O)c2ccccc2C1=O)OC1C=CCCC1 (configuration not stated) | > 100 µM | > 100 µM | > 100 µM | > 100 µM | > 100 µM | – | – | – | – | –
C#Cc1cccc(N2C(=O)CC(=P(c3ccccc3)(c3ccccc3)c3ccccc3)C2=O)c1 | > 100 µM | – | > 100 µM | – | > 100 µM | – | – | – | – | –
CCCC(=O)C(CC)/C(CCC(=O)N(Cc1ccccc1)Cc1ccccc1)=N/NC(=O)C[N+](C)(C)C (configuration not stated) | > 100 µM | > 100 µM | > 100 µM | > 100 µM | > 100 µM | – | – | – | – | –
COc1ccc2c(CCNS(=O)(=O)c3ccccc3)c(C(C)=O)[nH]c2c1[N+](=O)[O-] | – | – | – | > 100 µM | > 100 µM | – | – | – | – | –
COC(=O)/C1=C/C2CC(/C=C(/c3ccccc3)C(=O)O1)C2 | > 100 µM | > 100 µM | > 100 µM | 53 µM | – | – | – | – | – | –
CC[O+]=c1cccc2ssnc1-2 | > 100 µM | > 100 µM | > 100 µM | > 100 µM | > 100 µM | – | – | – | – | –
C=CC1(C)/C(=N\O)C(C)(CC)C(=O)N1O (configuration not stated) | > 100 µM | > 100 µM | > 100 µM | > 100 µM | > 100 µM | – | – | – | – | –
CCC(=O)[O-].CCC(=O)[O-].N.N.N.N.[Co+3].[O-][Cl+3]([O-])([O-])[O-] | – | – | > 100 µM | > 100 µM | > 100 µM | > 100 µM | > 100 µM | > 100 µM | – | –
COc1ccc2c3c([nH]c2c1[N+](=O)[O-])C(C)N(C(=O)/C=C/c1ccccc1)CC3 (configuration not stated) | – | – | – | 7.77 µM | > 100 µM | – | – | – | – | –
CN1C(=O)NC2(O)c3ccccc3C(=O)C12O (configuration not stated) | > 100 µM | – | > 100 µM | – | > 100 µM | – | – | – | – | –
O=C(O)c1cc2c3c(c1)[C@H]1C=CC[C@H]1CN3CC1CC=CC21 (some centres not stated) | > 100 µM | > 100 µM | > 100 µM | > 100 µM | > 100 µM | – | – | – | – | –
CC(=O)[CH-]C(=O)c1ccccc1.CC(=O)[CH-]C(=O)c1ccccc1.[O-]c1ccc(O)cc1.[O-]c1ccc(O)cc1.[Ti+4] | 29.7 µM | 72.2 µM | 37.6 µM | – | – | 16.6 µM | – | – | 14.8 µM | 27.1 µM
COC(=O)c1c(C(=O)OC)c(C(=O)OC)c(C(=O)OC)c1C(=O)OC | – | > 100 µM | > 100 µM | > 100 µM | – | – | – | – | – | –
c1ccc2c(c1)[Se]c1ccccc1[Se]2 | > 100 µM | 98.6 µM | > 100 µM | > 100 µM | > 100 µM | – | – | – | – | –
Cc1ccc(S(=O)(=O)NC(C)C(=O)O)cc1 (configuration not stated) | > 100 µM | > 100 µM | > 100 µM | > 100 µM | – | – | – | – | – | –
[O-]c1c(-c2ccccc2)[se]c(-c2ccccc2)[n+]1-c1ccccc1 | 21.3 µM | 25.6 µM | 4.48 µM | 37.1 µM | 14 µM | – | – | – | – | –
COC(=O)/C=C\C1C(C(=O)OC)C2(C(=O)OC)CCC1(C(=O)OC)N2 (configuration not stated) | 27.9 µM | 28.9 µM | 12.4 µM | 33.9 µM | 35.9 µM | – | – | – | – | –
